The values that follow come from the supplement of paper PMC10331698.

± gives the standard deviation of the averaged measurements.

Holding throughout (assay): LOEC (log10 uM (lowest observed effect concentration))
Compound in test [1]: C=CC(=O)OCCC(F)(F)C(F)(F)C(F)(F)C(F)(F)F [2-(Perfluorobutyl)ethyl acrylate]
Here is the method: (§1)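 BioMAP Diversity Plus panel in human primary cell co-cultures, 4 concentrations in duplicate blinded samples. Responses are log10 fold change versus DMSO control, processed with tcpl v2.1.0. A hit is called when responses at any concentration exceed the cutoff (the larger of 3*bmad or log10(1.2)); the lowest observed effect concentration (modl_ga, log10 uM) is reported for hits.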

Compound in test [2]: O=C(O)C(F)(F)C(F)(F)C(F)(F)C(F)(F)C(F)(F)C(F)(F)C(F)(F)C(F)(F)Cl [9-Chloro-perfluorononanoic acid]
Here is the method: as §1

Compound in test [3]: O=C(O)C(F)(F)C(F)(F)C(F)(F)C(F)(F)C(F)(F)C(F)(F)C(F)(F)C(F)(F)C(F)(F)C(F)(F)C(F)(F)C(F)(F)F [Perfluorotridecanoic acid]
Here is the method:
as §1

Compound in another test: Cn1cnc([N+](=O)[O-])c1Sc1ncnc2[nH]cnc12 [Azathioprine]
Here is the method: as §1

Compound in test [4]: O=C(O)C(F)(F)OC(F)(F)C(F)(F)OC(F)(F)C(F)(F)C(F)(F)C(F)(F)F [Perfluoro-3,6-dioxadecanoic acid]
Here is the method:
as §1

Compound in a further test: N=C(N)C(F)(F)C(F)(F)C(F)(F)C(F)(F)C(F)(F)C(F)(F)C(F)(F)F [Perfluorooctanamidine]
Here is the method:
as §1

Compound in test [5]: O=S(=O)(O)C(F)(F)C(F)(F)C(F)(F)C(F)(F)C(F)(F)C(F)(F)C(F)(F)C(F)(F)F [Perfluorooctanesulfonic acid]
Here is the method: as §1

Compound in test [6]: O=S(=O)(O)C(F)(F)C(F)(F)C(F)(F)C(F)(F)C(F)(F)C(F)(F)C(F)(F)C(F)(F)F [Potassium perfluorooctanesulfonate]
Here is the method: as §1

Compound in test [7]: O=P(O)(O)CCC(F)(F)C(F)(F)C(F)(F)C(F)(F)C(F)(F)C(F)(F)C(F)(F)C(F)(F)F [((Perfluorooctyl)ethyl)phosphonic acid]
Here is the method:
as §1

In the case of 3C Eselectin down, in test [1], the “LOEC (log10 uM)” value came out at 1.78.

On to 3C Eselectin up, for which the “LOEC (log10 uM)” value in test [2] is 1.78.

In the case of 3C IL8 down, the “LOEC (log10 uM)” value in test [3] is 1.22 ± 0.37.

With 3C MCP1 down, the “LOEC (log10 uM)” value in [2] turned out to be 1.78.

As for 3C SRB down, the results for the “LOEC (log10 uM)” value (with Azathioprine; in test [2]; in test [4]) were 1.48, 1.78 and 1.78, respectively.

Turning to 3C Thrombomodulin down, the “LOEC (log10 uM)” value in [1] worked out at 1.54 ± 0.34.

On to 3C TissueFactor down, for which the “LOEC (log10 uM)” value in test [1] came out at 1.54 ± 0.34.

On to 3C VCAM1 down, for which the “LOEC (log10 uM)” value in test [1] was 1.54 ± 0.34; with Perfluorooctanamidine, 1.78; in [2], 1.78.

On to 4H SRB down, for which the entries for the “LOEC (log10 uM)” value in [3] and in test [2] were 1.22 ± 0.37 and 1.78, respectively.

For the test system 4H VEGFRII down, the “LOEC (log10 uM)” value in test [3] stood at 1.48.

For BE3C EGFR down, the “LOEC (log10 uM)” value in test [2] is 1.3; in test [4], 1.78; in test [5] it was 1.3; in test [6], 1.3.

On to BE3C HLADR down, for which the “LOEC (log10 uM)” value in [2] was found to be 1.3; in test [4], 1.54 ± 0.34; in test [5] it was 1.3; in test [6] it was 1.3.

Regarding BE3C ICAM1 down, in test [2], the “LOEC (log10 uM)” value is 1.78.

On to BE3C IL1a down, for which the “LOEC (log10 uM)” value in test [2] was 1.54 ± 0.34; in test [4] it was 1.78; in [5], 1.78.

For the test system BE3C IP10 down, the “LOEC (log10 uM)” value in test [2] stood at 1.3; in [4], 1.54 ± 0.34; in [5], 1.3; in test [6], 1.3.

BE3C ITAC down: the “LOEC (log10 uM)” value in test [2] was found to be 1.3; in [5], 1.54 ± 0.34; in test [6], 1.3.

BE3C ITAC up: the “LOEC (log10 uM)” value in [4] amounted to 0.845.

In the case of BE3C Keratin818 down, the “LOEC (log10 uM)” value in [2] was found to be 1.78.

In the case of BE3C MIG down, the “LOEC (log10 uM)” value in test [2] and in test [5] was 1.78 each time.

Regarding BE3C MMP1 up, the “LOEC (log10 uM)” value with Perfluorooctanamidine worked out at 1.78; in [4] it was 1.3; in [6], 0.573 ± 0.39.

As for BE3C SRB down, the entries for the “LOEC (log10 uM)” value in [2], in [5] and in test [6] were 1.54 ± 0.34, 1.3 and 1.3, respectively.

For the test system BE3C tPA down, the “LOEC (log10 uM)” value in the test with Azathioprine is 1.22 ± 0.37; in test [2], 1.78; in [4], 1.78.

Take BE3C tPA up: the “LOEC (log10 uM)” value in test [7] was 1.3.

For the test system BE3C uPA down, the “LOEC (log10 uM)” value in test [2] and in test [5] was 1.78 in each case.

Consider BE3C uPAR down, for which the “LOEC (log10 uM)” value in test [2] stood at 1.78.

For the test system BE3C uPAR up, the “LOEC (log10 uM)” value in [6] came to 1.54 ± 0.34.

For the test system BF4T Eotaxin3 down, the “LOEC (log10 uM)” value turned out to be 0.801 ± 0.71 in test [2], 0.845 in test [4] and 1.54 ± 0.34 in test [7].

Regarding BF4T ICAM1 down, in test [2], the “LOEC (log10 uM)” value came to 1.78.

For BF4T IL1a down, the “LOEC (log10 uM)” value in [2] came to 1.78.

In the case of BF4T IL8 up, the “LOEC (log10 uM)” value in test [4] was 1.07 ± 0.32.

BF4T Keratin818 down: the “LOEC (log10 uM)” value in test [2] came to 1.78.

For BF4T MCP1 down, the “LOEC (log10 uM)” value was 0.801 ± 0.71 in test [2] and 0.573 ± 0.39 in test [4].

Consider BF4T MMP1 down, for which the “LOEC (log10 uM)” value in [2] was 1.78.

In the case of BF4T MMP3 up, the “LOEC (log10 uM)” value in [4] is 1.3.

Turning to BF4T MMP9 down, the “LOEC (log10 uM)” value in [2] was 1.78.

BF4T PAI1 down: the “LOEC (log10 uM)” value in test [2] turned out to be 1.78.

In the case of BF4T SRB down, the “LOEC (log10 uM)” value in test [2] was determined as 1.78.

On to BF4T VCAM1 down, for which the “LOEC (log10 uM)” value was 1.48 in the test with Azathioprine and 1.3 in [2].

In the case of BF4T tPA down, the “LOEC (log10 uM)” value in test [2] came out at 1.3.

Take BF4T uPA down: in [2], the “LOEC (log10 uM)” value came out at 1.78.

Turning to BT Bcell Proliferation up, in test [2], the “LOEC (log10 uM)” value worked out at 1.78.

Turning to BT PBMCCytotoxicity down, the “LOEC (log10 uM)” value in [1] stood at 1.54 ± 0.34.

BT PBMCCytotoxicity up: the “LOEC (log10 uM)” value in test [2] and in [4] was 1.78 in each case.

As for BT sIgG down, the “LOEC (log10 uM)” value was 1.78 in [1] and -0.0458 in the test with Azathioprine.

For the test system BT xIL2 down, the “LOEC (log10 uM)” value is 1.78 in test [1] and 1.48 in the test with Azathioprine.

BT xIL6 down: the entries for the “LOEC (log10 uM)” value (in test [1]; with Azathioprine) were 1.78 and 1.48, respectively.

BT xIL17A down: the “LOEC (log10 uM)” value in test [1] amounted to 1.54 ± 0.34; with Azathioprine it was 1.48.

Turning to BT xIL17F down, the results for the “LOEC (log10 uM)” value (in [1]; with Azathioprine) were 1.3 and 1.48, respectively.

On to BT xTNFa down, for which the “LOEC (log10 uM)” value in [1] was determined as 1.3; in the test with Azathioprine it was 0.716 ± 0.34.

As for CASM3C Proliferation down, the “LOEC (log10 uM)” value with Azathioprine stood at 1.48.

For the test system CASM3C SAA up, the “LOEC (log10 uM)” value in test [3] was found to be 0.477 ± 0.68.

With IMphg CD40 down, the “LOEC (log10 uM)” value with Azathioprine came to 1.48; in test [3], 1.48; in [2] it was 1.78; in [4], 1.78.

For the test system IMphg CD69 down, the “LOEC (log10 uM)” value in test [2] and in test [4] was 1.78 in each case.

As to IMphg MCP1 down, in test [2], the “LOEC (log10 uM)” value was found to be 1.78.

For IMphg MCSF down, the “LOEC (log10 uM)” value with Azathioprine came to 1.48.

In the case of IMphg SRB down, the “LOEC (log10 uM)” value in [2] came to 1.78.

Consider IMphg VCAM1 down, for which the figures for the “LOEC (log10 uM)” value (in the test with Perfluorooctanamidine; in [3]; in test [2]) were 1.78, 1.22 ± 0.37 and 1.78, respectively.

In the case of KF3CT ICAM1 down, in test [2], the “LOEC (log10 uM)” value came out at 1.78.

For the test system KF3CT IL1a down, the “LOEC (log10 uM)” value in test [3] turned out to be 1.22 ± 0.37; in test [2], 1.78.
